Test results published in paper PMC3091354 (Journal of chromatography. B, Analytical technologies in …, 2011).
“And” between values parts separate entries of the source, which are not always exact repeats. Equal values may be shown once. Read-outs that look alike come from different tables or passages of the source.

Experiments:
cells = settings: all cells tested; cited from earlier work
[1] = Stability of 3-MoSA in mouse brain homogenate to freezing; format: physicochemical; settings: storage 7 months at −80°C
[2] = format: in vivo; settings: mouse; for concentration at 1 week: male, C57BL/6N, oral; for Concentration in brain: 1 week
[3] = format: in vivo; settings: mouse; for Tmax / MRT inf: male, C57BL/6N, ip
[4] = single i.p. 200 mg/kg, plasma, 200 mg/kg

For `COc1cccc(CN)c1O` [3-MoSA, 3-methoxy-2-hydroxybenzylamine], which Cytotoxicity (cells) is on record?
Its Cytotoxicity is “not cytotoxic”.

And the “Stability: fraction recovered after storage” value [1]?
Its value is 77% and 76.87%.

And the concentration at 1 week ([2]; brain, 3 g/l, Concentration in brain, drink at 3 g/l)?
Its concentration at 1 week is 18000 ng/g.

What about the concentration at 1 week ([2]; brain, 5 g/l, Concentration in brain, drink at 5 g/l) of the same compound?
The concentration at 1 week was 25000 ng/g.

And the concentration at 1 week ([2]; brain, 7 g/l, Concentration in brain, drink at 7 g/l)?
Its concentration at 1 week is 38000 ng/g.

And the concentration at 1 week ([2]; brain, 10 g/l, Concentration in brain, drink at 10 g/l)?
Its concentration at 1 week is 82000 ng/g.

What about the concentration at 1 week ([2]; heart, 3 g/l, Concentration in heart, drink at 3 g/l) of the same compound?
Its concentration at 1 week is 23900 ± 6500 ng/g.

And the concentration at 1 week ([2]; heart, 5 g/l, Concentration in heart, drink at 5 g/l)?
The concentration at 1 week was 46300 ± 6000 ng/g.

And the concentration at 1 week ([2]; heart, 7 g/l, Concentration in heart, drink at 7 g/l)?
The concentration at 1 week was 53500 ± 8100 ng/g.

And the concentration at 1 week ([2]; heart, 10 g/l, Concentration in heart, drink at 10 g/l)?
Its concentration at 1 week is 60200 ± 8700 ng/g.

And the concentration at 1 week ([2]; kidney, 3 g/l, Concentration in kidney, drink at 3 g/l)?
Its concentration at 1 week is 91100 ± 16300 ng/g.

What about the concentration at 1 week ([2]; kidney, 5 g/l, Concentration in kidney, drink at 5 g/l) of the same compound?
The concentration at 1 week was 155000 ± 20300 ng/g.

And the concentration at 1 week ([2]; kidney, 7 g/l, Concentration in kidney, drink at 7 g/l)?
The concentration at 1 week was 210000 ± 13100 ng/g.

And the concentration at 1 week ([2]; kidney, 10 g/l, Concentration in kidney, drink at 10 g/l)?
Its concentration at 1 week is 212000 ± 17400 ng/g.

And the concentration at 1 week ([2]; liver, 3 g/l, Concentration in liver, drink at 3 g/l)?
The concentration at 1 week was 74100 ± 11700 ng/g.

What about the concentration at 1 week ([2]; liver, 5 g/l, Concentration in liver, drink at 5 g/l) of the same compound?
Its concentration at 1 week is 204000 ± 22000 ng/g.

What about the concentration at 1 week ([2]; liver, 7 g/l, Concentration in liver, drink at 7 g/l) of the same compound?
The concentration at 1 week was 252000 ± 24300 ng/g.

And the concentration at 1 week ([2]; liver, 10 g/l, Concentration in liver, drink at 10 g/l)?
The concentration at 1 week was 259000 ± 26200 ng/g.

What about the concentration at 1 week ([2]; plasma, 3 g/l, Concentration in plasma, drink at 3 g/l) of the same compound?
Its concentration at 1 week is 4000 ± 1000 ng/mL.

What about the concentration at 1 week ([2]; plasma, 5 g/l, Concentration in plasma, drink at 5 g/l) of the same compound?
Its concentration at 1 week is 5400 ± 1100 ng/mL.

And the concentration at 1 week ([2]; plasma, 7 g/l, Concentration in plasma, drink at 7 g/l)?
The concentration at 1 week was 10800 ± 1600 ng/mL.

What about the concentration at 1 week ([2]; plasma, 10 g/l, Concentration in plasma, drink at 10 g/l) of the same compound?
The concentration at 1 week was 11500 ± 1200 ng/mL.

What about the concentration at 1 week ([2]; spleen, 3 g/l, Concentration in spleen, drink at 3 g/l) of the same compound?
The concentration at 1 week was 46600 ± 7900 ng/g.

And the concentration at 1 week ([2]; spleen, 5 g/l, Concentration in spleen, drink at 5 g/l)?
Its concentration at 1 week is 82200 ± 7200 ng/g.

And the concentration at 1 week ([2]; spleen, 7 g/l, Concentration in spleen, drink at 7 g/l)?
Its concentration at 1 week is 185000 ± 11600 ng/g.

And the concentration at 1 week ([2]; spleen, 10 g/l, Concentration in spleen, drink at 10 g/l)?
The concentration at 1 week was 192000 ± 23600 ng/g.

And the Concentration in brain ([2]; drink at 3 g/l)?
Its Concentration in brain is 18.1 ± 4.4 µg of 3-MoSA/g of tissue.

And the Concentration in brain ([2]; drink at 5 g/l)?
The Concentration in brain was 24.7 ± 3.1 µg of 3-MoSA/g of tissue.

And the Concentration in brain ([2]; drink at 7 g/l)?
Its Concentration in brain is 37.6 ± 0.8 µg of 3-MoSA/g of tissue.

And the Concentration in brain ([2]; drink at 10 g/l)?
The Concentration in brain was 82.3 ± 24.5 µg of 3-MoSA/g of tissue.

And the Tmax ([3]; brain, 200 mg/kg)?
Its Tmax is 15 min.

And the MRT inf ([3]; heart, 200 mg/kg)?
The MRT inf was 54 min.

And the Tmax ([3]; heart, 200 mg/kg)?
Its Tmax is 15 min.

And the MRT inf ([3]; kidney, 200 mg/kg)?
Its MRT inf is 54 min.

And the Tmax ([3]; kidney, 200 mg/kg)?
Its Tmax is 30 min.

And the MRT inf ([3]; liver, 200 mg/kg)?
The MRT inf was 60 min.

What about the Tmax ([3]; liver, 200 mg/kg) of the same compound?
The Tmax was 15 min.

What about the Tmax ([3]; plasma, 200 mg/kg) of the same compound?
Its Tmax is 30 min.

What about the MRT inf ([3]; spleen, 200 mg/kg) of the same compound?
Its MRT inf is 60 min.

And the Tmax ([3]; spleen, 200 mg/kg)?
Its Tmax is 15 min.

What about the “Time to distribution to heart, spleen, liver and kidneys after administration” value ([3]; single i.p. 200 mg/kg) of the same compound?
The value was 15 to 30 min.

And the “Time of maximum brain concentration (CBmax)” value ([3]; single i.p. 200 mg/kg, brain)?
The value was 15 min.

What about the “Cmax, brain” value ([3]; single i.p. 200 mg/kg, brain, 200 mg/kg) of the same compound?
The value was 1395 ± 207 µg/g and 1395.3 ± 207.0 µg/g.

What about the “AUC (0-t), heart” value ([3]; single i.p. 200 mg/kg, heart) of the same compound?
Its value is 546.7 ± 52.4 µg·h/g.

What about the “AUC (0-t), kidney” value ([3]; single i.p. 200 mg/kg, kidney) of the same compound?
Its value is 1981.6 ± 174.0 µg·h/g.

What about the “Cmax, kidney” value ([3]; single i.p. 200 mg/kg, kidney) of the same compound?
Its value is 1703.1 ± 146.1 µg/g.

What about the “AUC (0-t), liver” value ([3]; single i.p. 200 mg/kg, liver) of the same compound?
Its value is 540.4 ± 37.1 µg·h/g.

What about the “Cmax, liver” value ([3]; single i.p. 200 mg/kg, liver) of the same compound?
Its value is 880.4 ± 122.3 µg/g.

And the “Drug accumulation over time in organs” value ([3]; single i.p. 200 mg/kg, organs studied)?
Its value is “no evidence of specific drug accumulation over time”.

What about the “AUC (0-t), plasma” value [3, 4] of the same compound?
Its value is 361.5 ± 41.6 µg·h/mL.

What about the “CL/F (total body clearance)” value [3, 4] of the same compound?
Its value is 544.1 L/h/kg.

And the “Cmax, plasma” value [3, 4]?
The value was 342600 ± 56400 ng/mL.

What about the “Elimination t1/2, plasma” value [3, 4] of the same compound?
Its value is 36 min.

And the “V/F (apparent volume of distribution, Vd/F)” value [3, 4]?
Its value is 486.4 L/kg.

What about the “AUC (0-t), spleen” value ([3]; single i.p. 200 mg/kg, spleen) of the same compound?
The value was 734.5 ± 60.7 µg·h/g.

And the “Time after injection up to which 3-MoSA was detectable in tissue” value ([3]; single i.p. 200 mg/kg, tissue)?
Its value is “up to 4 h”.
